Laboratory results taken from PubChem BioAssay AID1919674.

Target: Solute carrier family 12 member 2 (Homo sapiens) (UniProt P55011)
Test: SLC12A2 cotransporter inhibitors, dose response, HEK-293 overexpressing cells, thallium flux (AID 1919674)
Details: HEK-293 SLC12A2 OE, thallium flux fluorescence (FLIPR)

Chain of Solute carrier family 12 member 2 (Homo sapiens) (P55011 whole entry, looked up): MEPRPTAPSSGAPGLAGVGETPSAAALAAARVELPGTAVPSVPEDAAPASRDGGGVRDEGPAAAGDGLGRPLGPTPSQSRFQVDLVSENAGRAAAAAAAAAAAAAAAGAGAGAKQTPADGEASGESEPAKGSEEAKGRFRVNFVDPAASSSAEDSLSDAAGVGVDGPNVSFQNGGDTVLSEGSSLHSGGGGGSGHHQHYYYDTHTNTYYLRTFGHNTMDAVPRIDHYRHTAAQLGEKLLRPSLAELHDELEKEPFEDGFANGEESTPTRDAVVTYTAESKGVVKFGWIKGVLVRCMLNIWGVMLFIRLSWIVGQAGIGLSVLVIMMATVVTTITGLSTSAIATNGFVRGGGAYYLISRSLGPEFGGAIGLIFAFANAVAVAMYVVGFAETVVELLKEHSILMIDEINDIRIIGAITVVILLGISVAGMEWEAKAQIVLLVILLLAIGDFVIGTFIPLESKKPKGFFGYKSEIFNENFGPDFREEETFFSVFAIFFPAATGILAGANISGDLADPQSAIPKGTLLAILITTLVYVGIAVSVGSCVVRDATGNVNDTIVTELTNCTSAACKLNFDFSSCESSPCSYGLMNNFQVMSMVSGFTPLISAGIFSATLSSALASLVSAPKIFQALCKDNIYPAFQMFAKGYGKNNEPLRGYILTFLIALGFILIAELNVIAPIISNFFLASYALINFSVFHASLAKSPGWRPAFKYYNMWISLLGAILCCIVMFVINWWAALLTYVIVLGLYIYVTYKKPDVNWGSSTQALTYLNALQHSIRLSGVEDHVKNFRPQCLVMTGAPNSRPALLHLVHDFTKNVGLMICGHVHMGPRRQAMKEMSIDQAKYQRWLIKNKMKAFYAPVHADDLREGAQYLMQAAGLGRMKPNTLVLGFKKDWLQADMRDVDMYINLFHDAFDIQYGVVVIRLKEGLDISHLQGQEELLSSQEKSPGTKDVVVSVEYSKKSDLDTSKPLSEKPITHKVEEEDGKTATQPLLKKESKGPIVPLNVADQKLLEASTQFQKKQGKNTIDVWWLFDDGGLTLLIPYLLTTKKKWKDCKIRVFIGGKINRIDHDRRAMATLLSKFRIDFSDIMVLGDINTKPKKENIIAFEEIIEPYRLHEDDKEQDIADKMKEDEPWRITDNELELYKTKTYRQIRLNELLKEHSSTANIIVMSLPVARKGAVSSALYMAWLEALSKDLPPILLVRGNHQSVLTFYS

## [Tl+]
  IC50: 600 µM
